Assay results as given in US9290464B2 (priority 2010, dated 2016).

Columns and labels:
MPTP-induced mouse [1] = assay: Concentration of dopamine in striatum of MPTP-induced mouse (HPLC); format: in vivo, C57BL/6 mice; conditions: 1 mg/kg oral once a day, FIG. 4
Experimental: 7 days after the compounds described above are respectively administered to the three groups, the mice in each group were sacrificed by cervical dislocation and brain tissues were immediately taken out of the mice. Striatum was collected from the brain tissue, 0.5 ml of a HPLC assay diluent (0.1 M HClO4, 0.1 mM EDTA) was added to the striatum, and a tissue homogenate was then prepared using an ultrasonic processor. The homogenate was centrifuged at 12,000 rpm for 15 minutes, and the supernatant was filtered with a nitrocellulose filter (0.2 um, Millipore). For HPLC analysis, HR-80 column (80 mm×4.6 mm, particle size: 3 μm ESA, USA) was used, the flow rate of a mobile phase (0.07 M monobasic sodium phosphate, 1 mM sodium octasulfonic acid, 0.1 uM EDTA, 5% acetonitrile, pH 3.2) was maintained at 0.7 ml/min, and the electrode potential of an electrochemical detector (Coulochem III, ESA, USA) was at E1=−100 mV, E2=350 mV.

MPTP-induced mouse [2] = assay: Number of neurites and spines per neuron in MPTP-induced mouse (confocal microscopy); format: in vivo, C57BL/6 mice; conditions: 1 mg/kg oral once a day for 10 days after MPTP
Experimental: To observe whether or not the number of neurites and spines per neuron in the tissues was increased, a coronal slice with a thickness of 200 um containing striatum or substantia nigra was prepared using a vibratome. Each group of mice was sacrificed, and the brain was taken out of each group and then placed in a cold, highly-concentrated sucrose dissection buffer bubbled with carbogen (5% CO2 and 95% O2) (87 mM NaCl, 2.5 mM KCl, 1.25 mM NaH2PO4, 25 mM NaHCO3, 1 mM CaCl2, 3 mM MgCl2, 10 mM dextrose, and 75 mM sucrose). While the vibratome was performed, a slicing chamber was filled with the uniformly carbogenated sucrose dissection buffer. After the slicing process was terminated, all the slices were washed with PBS, and fixed with 4% paraformaldehyde in a PBS solution. The fixed brain slices were placed on a 1.5% agarose (in PBS) block. Images thereof were obtained using a confocal microscope (ZEISS LSM 510 META) by using Zeiss LSM image browser software (Carl Zeiss Microimaging, Germany, version 4.0 SP2).

[3] = system: MAO-B-deficient human neuroblastoma SH-SY5Y cells; assay: Reactive oxygen species (DCF-DA staining) in MPP+-treated cells; format: cell-based; conditions: 2 mM MPP+, 50 nM, 24 hours; FIGS. 19 and 20
Experimental: In this embodiment, MAO-B-deficient human neuroblastoma SH-SY5Y cells (Korean Cell Line Bank) were used. The cells were cultured in a DMEM medium at 37° C. with 5% of CO2 for 24 hours. The cultured cells were divided into three groups, 2 mM of MPP^+ was added to each group, one of the three groups was treated with 50 nM of CBI, one of the other two groups was treated with 50 nM of rasagiline, and the three groups were further incubated with 5% of CO2 at 37° C. for 24 hours. The group with only MPP^+ added thereto was incubated under the same conditions as described above. Subsequently, the cells were stained with 2,7-dichlorofluorescein diacetate (DCF-DA), which is a fluorescence dye capable of detecting reactive oxygen species, and then observed using a confocal microscope (Nikon Co., Japan).

caspase 3 = assay: Activity of caspase 3/7 (Apo-ONE) in MPP+-treated cells; format: cell-based, human; conditions: 2 mM MPP+, 24 hours; CBI 1, 5, 10 and 50 nM, rasagiline 50 nM; FIG. 18
Experimental: SH-SY5Y cells were incubated in a 96-well plate at a concentration of 5×10^5 cells/well under the same conditions as described above, the cells were treated with 2 mM of MPP^+ and CBI (1, 5, 10 and 50 nM) or rasagiline (50 nM), and the resulting cells were incubated for 24 hours. Subsequently, 100 μl of Apo-ONE caspase 3/7 reagent (Promega, G7790) was added thereto and mixed therewith, and the resultant was further incubated for 4 hours. After the incubation was terminated, fluorescence was measured at an excitation wavelength of 495 nm and an emission wavelength of 521 nm by using a fluorescence plate reader (GeminiXPS, Molecular Devices).

C#CCN[C@@H]1CCc2ccccc21 [rasagiline, R(+)-N-propargyl-1-aminoindan, reference compound]
restoration of the concentration of dopamine in striatum compared with normal mice (MPTP-induced mouse [1]): about 40% | number of neurites (MPTP-induced mouse [2]; FIG. 23): did not exhibit statistical significance | number of spines (MPTP-induced mouse [2]; FIG. 24): an increase in the number of spines was observed | reactive oxygen species [3]: significantly decreased | activity of caspase 3 (caspase 3): reduced
